Measured values reported in patent publication US5468773A, “Methods for inhibiting bone loss and cartilage degradation using wortmannin and its analogs” (Eli Lilly and Company, priority 1994, dated 1995).
Read-outs that look alike come from different tables or passages of the source. Ends that are not written are not given here.

Experiments:
[1] = test system: post-menopausal loss of bone; conditions: chronic treatment, clinical data; background; cited from earlier work
[2] = test system: osteoclastic bone resorption; assay: serum calcium in a rat model of secondary hyperparathyroidism (calcium deficient diet), 6 hr infusion; type: in vivo, Sprague Dawley rats; conditions: T=0 control 12 mg/dl, P<0.05
Excerpt: Compounds were also examined in a rat model of secondary hyperparathyroidism according to similars method as set out in Thomas et al., Bone and Mineral, 4, pp. 73-82 (1988) in an effort to examine the ability of these compounds to inhibit osteoclastic bone resorption in vivo. Serum calcium levels (mg/dl) were previously shown to be dependant on bone resorption in Sprague Dawley rats (400 g males) maintained on a calcium deficient diet for 2 weeks. Serum calcium levels were examined colorimetrically (Sigma, St. Louis) before (T=O) and after 6 hr infusion (T=6) of compounds at a rate of 0.08 ml/hr through cannula inserted into the jugular vein of anesthesized rates. At T=0, the serum calcium of a control rat was 12 mg/dl.

hen osteoclasts = assay: inhibition of in vitro bone resorption activity of hen osteoclasts; type: cell-based; conditions: for percent of control bone resorption: mean ± SE, n=3-6
Method: (§1) Control resorption in Table 2b corresponded to 12-62 Howship's lacunae per bone slice (n=4-4. mean ±SE).
As summarized in Table 3, the various analogs inhibited the resorption of hen osteoclasts with IIIA IC50=10 nM; IIIb, IC50=100 nM; and Ib, IC50=500 nM. Data presented are percent of control bone resorption (n=3-6, mean ±SE). Control levels of resorption varied from 26-49 mg bone resorbed between days 4-6 in culture.

ovariectomized rats = assay: bone mineral density and content of left proximal tibiae in ovariectomized rats (pQCT); type: in vivo, rat; conditions: 5 weeks, mean ± SD, n=6; for Bone Content: Sham 14 ± 1.5, OVX 10.4 ± 1.2; for Total Bone Mineral Density: Sham 590 ± 26, OVX 494 ± 29
Excerpt: As summarized in Table 4, IIIa was also examined in 6 month old, ovariectomized rats. The bone mineral density (mg/cm^3) and bone mineral content (mg) of the left proximal tibiae were quantitated by computer tomography with a Norland 960 pQCT after daily dosing per os for 5 weeks, similar to the methods of Griffin et al., "Dual-energy X-ray Absorptiometry of the Rat: Accuracy, Precision and Measurement of Bone Loss", J. Bone Miner. Res 8, pp. 795-800 (1993). There were five groups of rats with n=6 per group: Sham, OVX, 0.001, 0.01, and 0.1 mg of IIIa/kg per os daily. In vivo data are presented for a 2 mm slice of the left proximal tibia at 5 weeks post-ovariectomy (mean ±standard deviation).

rat osteoclasts = assay: inhibition of in vitro bone resorption activity of rat osteoclasts (Howship's lacunae per bone slice); type: cell-based; conditions: Osteoclast, Table 2b, mean ± SE, read-out: % Control Bone Resorption
Excerpt: as §1

mammalian osteoclasts = conditions: background; cited from earlier work
[3] = 1 mg/kg/day infused via jugular vein
[4] = Table 3, concentration 1 × 10^-6
[5] = Table 3, concentration 1 × 10^-7
[6] = Table 3, concentration 1 × 10^-8
[7] = Table 3, concentration 1 × 10^-9
[8] = Osteoclast, read-out: % Control Bone Resorption

Compound: calcitonin: calcitonin has been used to treat osteoporotic patients (CGNLSTCMLGTYTQDFNKFHTFPQTAIGVGAP; ends and bridges not checked; cysteine pairing not given here; UniProt P01258 85-116, looked up)
- arrest of post-menopausal loss of bone [1]: ineffective to arrest the post-menopausal loss of bone

Compound: COC[C@H]1OC(=O)c2coc3c2[C@@]1(C)C1=C(C3=O)[C@@H]2CC[C@H](O)[C@@]2(C)C[C@H]1OC(C)=O [IIIa, 17α-Dihydrowortmannin]
- serum calcium after 6 hr of infusion [2, 3]: ~5 mg/dL
- percent of control bone resorption (hen osteoclasts; [4]): 8 ± 1%
- percent of control bone resorption (hen osteoclasts; [5]): 29 ± 4%
- percent of control bone resorption (hen osteoclasts; [6]): 67 ± 5%
- percent of control bone resorption (hen osteoclasts; [7]): 94 ± 5%
- Bone Content (ovariectomized rats; 0.001 mg/kg/day per os): 13.6 ± .6 mg
- Total Bone Mineral Density (ovariectomized rats; 0.001 mg/kg/day per os): 528 ± 33 mg/cm3
- Bone Content (ovariectomized rats; 0.01 mg/kg/day per os): 13.5 ± 1 mg
- Total Bone Mineral Density (ovariectomized rats; 0.01 mg/kg/day per os): 545 ± 26 mg/cm3
- Bone Content (ovariectomized rats; 0.1 mg/kg/day per os): 11.5 ± .7 mg
- Total Bone Mineral Density (ovariectomized rats; 0.1 mg/kg/day per os): 494 ± 18 mg/cm3

Compound: COC[C@H]1OC(=O)c2coc3c2[C@@]1(C)C1=C(C3=O)[C@@H]2CCC(=O)[C@@]2(C)CC1 [Ib, 11-deacetoxywortmannin]
- IC50 (hen osteoclasts; Osteoclast, hen osteoclasts, analogs, Example 2, read-out: IC50, resorption of hen osteoclasts): 500 nM
- percent of control bone resorption (hen osteoclasts; [4]): 42 ± 3%
- percent of control bone resorption (hen osteoclasts; [5]): 90 ± 15%
- percent of control bone resorption (hen osteoclasts; [6]): 97 ± 17%
- percent of control bone resorption (hen osteoclasts; [7]): 106 ± 10%

Compound: COC[C@H]1OC(=O)c2coc3c2[C@@]1(C)C1=C(C3=O)[C@@H]2CCC(=O)[C@@]2(C)C[C@H]1OC(C)=O [Wortmannin, wortmannin]
- activity at 1 µM (rat osteoclasts; 1 × 10^-6 M): 3 ± 3%
- activity at 0.1 µM (rat osteoclasts; 1 × 10^-7 M): 30 ± 6%
- activity at 0.01 µM (rat osteoclasts; 1 × 10^-8 M): 32 ± 13%
- activity at 0.001 µM (rat osteoclasts; 1 × 10^-9 M): 79 ± 22%
- activity at 0.0001 µM (rat osteoclasts; 1 × 10^-10 M): 93 ± 11%
- serum calcium after 6 hr of infusion [2, 3]: approximately 9 mg/dl
- activity at 0.01 µM (hen osteoclasts; [8]): 90 ± 7%
- activity at 0.05 µM (hen osteoclasts; [8]): 79 ± 2%
- activity at 0.1 µM (hen osteoclasts; [8]): 58 ± 6%
- activity at 0.5 µM (hen osteoclasts; [8]): 52 ± 3%
- activity at 1 µM (hen osteoclasts; [8]): 54 ± 4%
- activity at 5 µM (hen osteoclasts; [8]): 19 ± 1%
- activity at 10 µM (hen osteoclasts; [8]): 23 ± 7%
- IC50 (hen osteoclasts; Osteoclast, read-out: IC50, in vitro bone resorption activity): 300 nM

Compound: Cc1c2c(c(O)c3occ(C(=O)O)c13)[C@@H]1CCC(=O)[C@@]1(C)C=C2 [IVa]
- percent of control bone resorption (hen osteoclasts; [4]): 105 ± 10%
- percent of control bone resorption (hen osteoclasts; [5]): 110 ± 13%
- percent of control bone resorption (hen osteoclasts; [6]): 99 ± 15%
- percent of control bone resorption (hen osteoclasts; [7]): 93 ± 14%

Compound: salmon calcitonin [reference compound]
- serum calcium after 6 hr of infusion ([2]; positive control, 12 ug/kg/day): 9 mg/dL
- inhibition of resorption activity of mammalian osteoclasts (mammalian osteoclasts): directly inhibit the resorption activity of mammalian osteoclasts

Compound: COC[C@H]1OC(=O)c2coc3c2[C@@]1(C)C1=C(C3=O)[C@@H]2CC[C@H](O)[C@@]2(C)CC1 [IIIb, 11-Desacetoxy-17α-dihydrowortmannin]
- IC50 (hen osteoclasts; Osteoclast, read-out: IC50, resorption of hen osteoclasts): 100 nM
- percent of control bone resorption (hen osteoclasts; [4]): 26 ± 3%
- percent of control bone resorption (hen osteoclasts; [5]): 50 ± 4%
- percent of control bone resorption (hen osteoclasts; [6]): 88 ± 19%
- percent of control bone resorption (hen osteoclasts; [7]): 124 ± 23%
